US6593335B1, “Potassium channel openers” (Abbott Laboratories, priority 1997, dated 2003)

Assays:
potassium channels = potassium channels (Sus scrofa, UniProt F1SR11); assay: Functional potassium channel opening activity in isolated Landrace pig bladder strips (field-stimulated twitch); settings: for Landrace Pig Bladder Index: ED50 for P1075 divided by ED50 for the test agonist, averaged over tissues; for Landrace Pig Bladder pD2: negative logarithm of ED50; for Emax: pig, maximal efficacy relative to P1075, field stimulation 0.05Hz, 0.5 milli-seconds at 20 volts
Experimental: The entire bladder was removed and ed into Krebs Ringer bicarbonate solution (composition, mM: NaCl,; dextrose, 1; KCl, 4.7; […] Propranolol (0.004 ed in all of the assays to block […]. The trigonal and dome […]. Strips 3-5 mm wide and 20 mm long were prepared from the cut in a circular fashion. The mucosal layer was removed. One end ationary glass rod and the other to a Grass FT03 transducer at a basal am. Two parallel platinum electrodes were included in the stationary ide field stimulation of 0.05Hz, 0.5 milli-seconds at 20 volts. […] Tissues were allowed to equilibrate for at least 60 minutes and primed with 80 mM KCl. A control concentration response curve (cumulative) was generated for each tissue using the potassium channel opener […] as the control agonist. […] After a 60 minute rinsing period, a concentration response curve (cumulative) was generated for the test agonist in the same fashion as that used for the control agonist […]. The maximal efficacy of each compound (expressed as % relative to […]) is reported. […] J. Physiol. 235, E97 (1980)), and agonist potencies were expressed as pD2 (the negative logarithm). Agonist potencies were also expressed as an index relative to […]. The index was calculated by dividing the ED50 for […] by the ED50 for the test agonist in a given tissue. Each tissue was used for only one test agonist, and the indices obtained from each tissue were averaged to provide an average index of potency.

**Q.** For O=C1CCC2=C1C(c1ccc(Cl)c(Cl)c1)C1=C(CCS1(=O)=O)N2 (single isomer, unassigned) [Example 145], which melting point is on record?
**A.** The melting point was over 250 °C.

**Q.** With O=C1CCC2=C1C(c1ccc(Cl)c([N+](=O)[O-])c1)C1=C(CCS1(=O)=O)N2 (single isomer, unassigned) [Example 160] as the compound, how does the melting point read?
**A.** The melting point was over 250 °C.

**Q.** What does the source list for O=C1CCCC2=C1C(c1ccc(F)c(Cl)c1)C1=C(CCS1(=O)=O)N2 (single isomer, unassigned; (+)) [Example 109, (+)-9-(3-chloro-4-fluorophenyl)-2,3,5,6,7,9-hexahydrothieno[3,2-b]quinolin-8(4H)-one, 1,1-dioxide]?
**A.** Landrace Pig Bladder Index (potassium channels): 0.36; Landrace Pig Bladder pD2 (potassium channels): 6.6; Emax (potassium channels): 100%; melting point: > 250 °C

**Q.** Which melting point does the source give for O=C1CCCC2=C1C(c1ccc(F)c(C(F)(F)F)c1)C1=C(CCS1(=O)=O)N2 (single isomer, unassigned; (+)) [Example 138, (+)-9-[4-fluoro-3-(trifluoromethyl)phenyl]-2,3,5,6,7,9-hexahydrothieno[3,2-b]quinolin-8(4H)-one, 1,1-dioxide] here?
**A.** The melting point was over 250 °C.

**Q.** Which melting point does the source give for N#Cc1cccc(C2C3=C(CCC3=O)NC3=C2S(=O)(=O)CC3)c1 (single isomer, unassigned; (-)) [Example 162] here?
**A.** Its melting point is over 250 °C.

**Q.** For N#Cc1cccc(C2C3=C(CCC3=O)NC3=C2S(=O)(=O)CC3)c1 (stereo not drawn) [Example 52, 8-(3-cyanophenyl)-2,3,4,5,6,8-hexahydro-7H-cyclopenta[b]thieno [2.3-e]pyridin-7-one, 1,1-dioxide], which “Landrace Pig Bladder Index” value (potassium channels) is on record?
**A.** The value was 0.018.

**Q.** And the “Landrace Pig Bladder pD2” value (potassium channels)?
**A.** The value was 5.6.

**Q.** What about the Emax (potassium channels) of the same compound?
**A.** The Emax was 100%.

**Q.** What about the melting point of the same compound?
**A.** The melting point was 156 to 176 °C.

**Q.** With O=C1CCC2=C1C(c1cccc([N+](=O)[O-])c1)C1=C(CCCS1(=O)=O)N2 (stereo not drawn) [Example 55, 3,4,5,6,7,9-hexahydro-9-(3-nitrophenyl)cyclopenta[b]thiopyrano [2,3-e]pyridin-8(2H)-one, 1,1-dioxide] as the compound, how does the melting point read?
**A.** Its melting point is over 260 °C.

**Q.** With O=C1CCC2=C1C(c1ccc(F)c(Br)c1)C1=C(CCS1(=O)=O)N2 (stereo not drawn) [Example 56, 8-(3-bromo-4-fluorophenyl)-2,3,4,5,6,8-hexahydro-7H-cyclopenta[b]thieno[2,3-e]pyridin-7-one, 1,1-dioxide] as the compound, how does the “Landrace Pig Bladder Index” value (potassium channels) read?
**A.** Its value is 0.88.

**Q.** What about the “Landrace Pig Bladder pD2” value (potassium channels) of the same compound?
**A.** Its value is 7.1.

**Q.** And the Emax (potassium channels)?
**A.** Its Emax is 97%.

**Q.** And the melting point?
**A.** Its melting point is over 260 °C.

**Q.** Which results are given for O=C1CCC2=C1C(c1ccc(F)c(C(F)(F)F)c1)C1=C(CCS1(=O)=O)N2 (stereo not drawn) [Example 57, 8-(4-fluoro-3-trifluoromethylphenyl)-2,3,4,5,6,8-hexahydro-7H-cyclopenta[b]thieno [2.3-e]pyridin-7-one, 1,1-dioxide]?
**A.** Landrace Pig Bladder Index (potassium channels): 0.42; Landrace Pig Bladder pD2 (potassium channels): 6.8; Emax (potassium channels): 100%; melting point: 254 °C

**Q.** Which melting point does the source give for O=[N+]([O-])c1cccc(C2C3=C(CCCS3(=O)=O)NC3=C2S(=O)(=O)CCC3)c1 [Example 59, 3,4,6,7,8,10-hexahydro-10-(3-nitrophenyl)-2H,5H-dithiopyrano [3.2-b:2′,3′-e]pyridine, 1,1,9,9-tetraoxide] here?
**A.** Its melting point is over 260 °C.

**Q.** Which “Landrace Pig Bladder Index” value (potassium channels) does the source give for O=C1CCC2=C1C(c1ccc(Cl)c(Cl)c1)C1=C(CCS1(=O)=O)N2 (stereo not drawn) [Example 60, 8-(3 4-dichlorophenyl)-2,3 4,5,6,8-hexahydro-7H-cyclopenta[b]thieno [2,3-e]pyridin-7-one, 1,1-dioxide] here?
**A.** Its value is 0.60.

**Q.** And the “Landrace Pig Bladder pD2” value (potassium channels)?
**A.** The value was 6.9.

**Q.** And the Emax (potassium channels)?
**A.** The Emax was 100%.

**Q.** And the melting point?
**A.** Its melting point is over 260 °C.

**Q.** With N#Cc1cccc(C2C3=C(CCS3(=O)=O)NC3=C2S(=O)(=O)CC3)c1 [Example 62, 8-(3-cyanophenyl)-2,3,4,5,6,8-hexahydrodithieno [3.2-b:2′,3′-e]pyridine. 1,1,7,7-tetraoxide] as the compound, how does the melting point read?
**A.** Its melting point is 248 °C.

**Q.** With O=C1CCC2=C1C(c1cccc(Br)c1)C1=C(CCS1(=O)=O)N2 (stereo not drawn) [Example 64, 8-(3-bromophenyl)-2,3,4,5,6,8-hexahydro-7H-cyclopenta[b]thieno [2,3-e]pyridin-7-one, 1,1-dioxide] as the compound, how does the melting point read?
**A.** Its melting point is 246 °C.

**Q.** With O=S1(=O)CCC2=C1C(c1ccc(F)c(C(F)(F)F)c1)C1=C(CCS1(=O)=O)N2 [Example 65] as the compound, how does the “Landrace Pig Bladder Index” value (potassium channels) read?
**A.** Its value is 0.048.

**Q.** And the “Landrace Pig Bladder pD2” value (potassium channels)?
**A.** The value was 6.0.

**Q.** What about the Emax (potassium channels) of the same compound?
**A.** The Emax was 100%.

**Q.** And the melting point?
**A.** Its melting point is over 260 °C.

**Q.** With O=C1CCC2=C1C(c1cc(Br)cs1)C1=C(CCS1(=O)=O)N2 (stereo not drawn) [Example 67] as the compound, how does the melting point read?
**A.** Its melting point is 254 to 255 °C.

**Q.** Which melting point does the source give for O=C1CCC2=C1C(c1ccc(Br)s1)C1=C(CCS1(=O)=O)N2 (stereo not drawn) [Example 68] here?
**A.** Its melting point is 246 to 247 °C.

**Q.** With CC1=C(S(C)(=O)=O)C(c2ccc(Cl)c(Cl)c2)C2=C(CCC2=O)N1 (stereo not drawn) [Example 75, 4-(3,4-dichlorophenyl)-1,4,6,7-tetrahydro-2-methyl-3-(methylsulfonyl)-5H-cyclopentafblpyridin-5-one] as the compound, how does the melting point read?
**A.** The melting point was 218 to 220 °C.

**Q.** Which melting point does the source give for CC1=C(S(C)(=O)=O)C(c2ccc(Cl)c([N+](=O)[O-])c2)C2=C(CCC2=O)N1 (stereo not drawn) [Example 76, 4-(4-chloro-3-nitrophenyl)-1,4,6,7-tetrahydro-2-methyl-3-,(methylsulfonyl)-5H-cyclopenta[b]pyridin-5-one] here?
**A.** The melting point was 232 °C.

**Q.** Which melting point does the source give for O=C1CCC2=C1C(c1ccc(Br)cc1)C1=C(CCS1(=O)=O)N2 (stereo not drawn) [Example 78] here?
**A.** The melting point was 253 to 256 °C.

**Q.** With O=C1CCC2=C1C(c1ccc(F)c(F)c1)C1=C(CCS1(=O)=O)N2 (stereo not drawn) [Example 79] as the compound, how does the melting point read?
**A.** The melting point was over 260 °C.

**Q.** For O=C1CCC2=C1C(c1ccc(Cl)c(F)c1)C1=C(CCS1(=O)=O)N2 (stereo not drawn) [Example 80], which melting point is on record?
**A.** Its melting point is over 260 °C.

**Q.** For N#Cc1cc(C2C3=C(CCS3(=O)=O)NC3=C2S(=O)(=O)CC3)ccc1F [Example 82], which melting point is on record?
**A.** Its melting point is 275 to 280 °C (dec.).

**Q.** Which melting point does the source give for O=C1CCCC2=C1C(c1ccc(F)c(I)c1)C1=C(CCS1(=O)=O)N2 (stereo not drawn) [Example 89, 9-(4-fluoro-3-iodophenyl)-2,3,5,6,7,9-hexahydrothieno [3.2-b]quinolin-8(4H)-one, 1,1-dioxide] here?
**A.** Its melting point is over 250 °C.

**Q.** Which melting point does the source give for O=C1CCC2=C1C(c1ccc(F)c(I)c1)C1=C(CCS1(=O)=O)N2 (stereo not drawn) [Example 90] here?
**A.** Its melting point is over 250 °C.

**Q.** For Cc1cc(C2C3=C(CCCC3=O)NC3=C2S(=O)(=O)CC3)ccc1F (stereo not drawn) [Example 111, 9-(4-fluoro-3-methylphenyl)-2,3,5,6,7,9-hexahydrothieno[3,2-b]quinolin-8(4H)-one, 1,1-dioxide], which melting point is on record?
**A.** The melting point was over 260 °C.

**Q.** For O=C1CCCC2=C1C(c1cccnc1)C1=C(CCS1(=O)=O)N2 (stereo not drawn) [Example 117, 9-(3-pyridinyl)-2,3,5,6,7,9-hexahydrothieno[3,2-b]quinolin-8(4H)-one, 1,1-dioxide], which melting point is on record?
**A.** Its melting point is over 250 °C.

**Q.** With O=C1CCCC2=C1C(c1ccncc1)C1=C(CCS1(=O)=O)N2 (stereo not drawn) [Example 118, 9-(4-pyridinyl)-2,3.5,6,7,9-hexahydrothieno[3,2-b]quinolin-8(4H)-one, 1,1-dioxide] as the compound, how does the melting point read?
**A.** Its melting point is over 250 °C.

**Q.** For O=C1CCCC2=C1C(c1cc(Cl)ccc1O)C1=C(CCS1(=O)=O)N2 (stereo not drawn) [Example 120, 9-(5-chloro-2-hydroxyphenyl)-2,3,5,6,7,,9-hexahydrothieno[3 .2-b]guinolin-8(4H)-one, 1. I -dioxide], which melting point is on record?
**A.** The melting point was over 250 °C.

**Q.** With CC1(C)CCC2=C(C1=O)C(c1ccc(Cl)c(Cl)c1)C1=C(CCS1(=O)=O)N2 (stereo not drawn) [Example 127, 9-(3,.4-dichlorophenyl)-7,7-dimethyl-2,3.5,.6,7,9-hexahydrothieno[3,*2-b Iquinolin-8(4H)-one, 1,1-dioxide] as the compound, how does the melting point read?
**A.** Its melting point is 262 to 265 °C (dec.).

**Q.** Which melting point does the source give for O=C1CCCC2=C1C(c1ccc(Br)s1)C1=C(CCS1(=O)=O)N2 (stereo not drawn) [Example 128, 9-(5-bromo-2-thienyl)-2,3,5,6,7,9-hexahydrothieno[3,2-b]quinolin-8(4H)-one, 1,1-dioxide] here?
**A.** Its melting point is over 250 °C.

**Q.** Which melting point does the source give for O=C1CCCC2=C1C(c1cc(Br)cs1)C1=C(CCS1(=O)=O)N2 (stereo not drawn) [Example 129, 9-(4-bromo-2-thienyl)-2,3,5,6,7,9-hexahydrothieno[3,2-b]quinolin-8(4H)-one, 1,1-dioxide] here?
**A.** The melting point was over 250 °C.

**Q.** With O=C1CCCC2=C1C(c1ccc(Br)c(Br)c1)C1=C(CCS1(=O)=O)N2 (stereo not drawn) [Example 137, 9-(3 4-dibromophenyl)-2,3,5,6,79-hexahydrothieno[3,2-b]quinolin-8(4H)-one 1 1-dioxide] as the compound, how does the melting point read?
**A.** The melting point was over 250 °C.

**Q.** For O=C1CCCC2=C1C(c1ccc(Cl)c(C(F)(F)F)c1)C1=C(CCS1(=O)=O)N2 (stereo not drawn) [Example 151, 9-[4-chloro-3-(trifluoromethyl)phenyl]-2,3,5,6,7,9-hexahydrothieno [32-b]quinolin-8(4H)-one, 1,1-dioxide], which melting point is on record?
**A.** The melting point was over 250 °C.

**Q.** Which melting point does the source give for O=S1(=O)CCC2=C1C(c1ccc(F)c(Cl)c1)C=C(C(F)(F)F)N2 (stereo not drawn) [Example 163, 7-(3-chloro-4-fluorophenyl)-5-(trifluoromethyl)-2,3,4,7-tetrahydrothieno[3,2-b]pyridine, 1,1-dioxide] here?
**A.** Its melting point is 180 to 183 °C.

**Q.** With N#Cc1ccc(C2C3=C(CCCC3=O)NC3=C2S(=O)(=O)CC3)s1 (stereo not drawn) [Example 175, 9-(5-cyano-2-thienyl)-2,3,5,6,7,9-hexahydrothieno[3,2-b]guinolin-8(4H)-one, 1,1-dioxide] as the compound, how does the melting point read?
**A.** Its melting point is over 250 °C.

**Q.** For CC1(C)CCC(=O)C2=C1NC1=C(C2c2ccc(F)c(Br)c2)S(=O)(=O)CC1 (stereo not drawn) [Example 212], which melting point is on record?
**A.** The melting point was over 270 °C.
